From PMC9318816, “Differential Effects of a Novel Opioid Ligand UTA1003 on Antinociceptive Tolerance and Motor Behaviour” (Pharmaceuticals, 2022)
Like-named read-outs stand apart in the source and are kept apart here. Non-standard residues stand in square brackets, D forms with d. Residues, ends and D or L forms follow the SMILES beside them. *: point of attachment. Dmt = Cc1cc(O)cc(C)c1C[C@H](N)C(=O)O; Pip = O=C(O)[C@@H]1CCCCN1; NHBn = c1ccc(CN*)cc1

Experiments:
[1] = molecular target: NOP receptor; parameters: method as in PMID 22194444; details: partial agonist; cited from earlier work
[2] = test system: Sprague Dawley rats; experiment: Observation of physiological or behavioural toxicity after subcutaneous administration; details: for Physiological or behavioural toxicity: subcutaneous administration
[3] = molecular target: T1, human DOP receptor (Homo sapiens, UniProt P41143); experiment: cAMP assay in CHO-DOP cells (agonism); type: cell-based; details: for Inhibition of forskolin-stimulated cAMP production: 100 µM ligand, CHO-DOP cells, reference DPDPE
T1 construct: expressed in transfected cells; host or cells: CHO (CHO-DOP, G418 selection)

[4] = test system: untransfected Chinese hamster ovary (CHO-WT) cells; experiment: cAMP assay: inhibition of forskolin-stimulated cAMP in untransfected CHO cells; type: cell-based; details: 100 µM ligand, 1 µM forskolin
[5] = molecular target: KOP receptor; parameters: method as in PMID 22194444; details: partial agonist; cited from earlier work
[6] = molecular target: DOP receptor; details: cited from earlier work
[7] = molecular target: T2, human MOP receptor (Homo sapiens, UniProt P35372); experiment: cAMP assay in CHO-MOP cells (agonism); type: cell-based
T2 construct: expressed in transfected cells; host or cells: CHO (CHO-MOP, G418 selection)

[8] = test system: Sprague Dawley rats; experiment: Open-field motor behaviour
[9] = Solubility (subjective); type: physicochemical; details: detailed solubility experiments not performed
[10] = molecular target: T3, human NOP receptor (Homo sapiens, UniProt P41146); experiment: cAMP assay in CHO-NOP cells (agonism); type: cell-based
T3 construct: expressed in transfected cells; host or cells: CHO (CHO-NOP, G418 and hygromycin B selection)

[11] = molecular target: T4, human KOP receptor (Homo sapiens, UniProt P41145); experiment: cAMP assay in CHO-KOP cells (agonism); type: cell-based
T4 construct: expressed in transfected cells; host or cells: CHO (CHO-KOP, G418 selection)

[12] = test system: rat hippocampus; parameters: method as in earlier work; details: approximately five times lower dose; cited from earlier work
[13] = molecular target: T1, human DOP receptor; experiment: Antagonism of DPDPE effect in cAMP assay, CHO-DOP cells; type: cell-based
Description: The antagonist effect of UTA1003 was calculated as described in previous studies. […] (Figure 3E, Table 1).
For a direct comparison between the UTA ligands, standard compounds, and for the concentration-response curves, the pharmacological effect was calculated as % of inhibition of forskolin-induced cAMP production, and the values were used for statistical analysis.

[14] = test system: Sprague Dawley rats; experiment: Hot plate antinociception assay; details: repeated s.c. twice daily treatment; days 2, 5 and 8

T2 sequence (P35372 whole entry): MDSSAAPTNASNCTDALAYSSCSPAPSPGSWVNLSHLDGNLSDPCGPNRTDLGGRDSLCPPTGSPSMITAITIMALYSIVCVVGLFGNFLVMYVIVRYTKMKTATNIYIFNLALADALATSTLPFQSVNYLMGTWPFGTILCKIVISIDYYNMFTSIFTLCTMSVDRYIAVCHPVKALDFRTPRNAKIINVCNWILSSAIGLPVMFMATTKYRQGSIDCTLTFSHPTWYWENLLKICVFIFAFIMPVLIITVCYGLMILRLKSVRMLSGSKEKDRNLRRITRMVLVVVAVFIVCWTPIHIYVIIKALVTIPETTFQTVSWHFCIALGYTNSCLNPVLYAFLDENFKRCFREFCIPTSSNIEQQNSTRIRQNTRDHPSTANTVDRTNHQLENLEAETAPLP
T4 sequence (P41145 whole entry): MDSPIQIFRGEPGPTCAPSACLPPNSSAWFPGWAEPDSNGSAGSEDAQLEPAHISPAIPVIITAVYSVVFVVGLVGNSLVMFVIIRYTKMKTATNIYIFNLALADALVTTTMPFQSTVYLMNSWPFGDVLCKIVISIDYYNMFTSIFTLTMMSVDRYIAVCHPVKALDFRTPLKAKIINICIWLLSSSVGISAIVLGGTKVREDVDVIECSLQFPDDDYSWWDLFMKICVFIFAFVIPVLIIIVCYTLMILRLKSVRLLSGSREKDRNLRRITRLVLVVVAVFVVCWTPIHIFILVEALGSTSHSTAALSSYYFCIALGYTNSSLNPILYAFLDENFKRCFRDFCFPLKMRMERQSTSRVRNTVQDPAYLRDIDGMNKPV
T3 sequence (P41146 whole entry): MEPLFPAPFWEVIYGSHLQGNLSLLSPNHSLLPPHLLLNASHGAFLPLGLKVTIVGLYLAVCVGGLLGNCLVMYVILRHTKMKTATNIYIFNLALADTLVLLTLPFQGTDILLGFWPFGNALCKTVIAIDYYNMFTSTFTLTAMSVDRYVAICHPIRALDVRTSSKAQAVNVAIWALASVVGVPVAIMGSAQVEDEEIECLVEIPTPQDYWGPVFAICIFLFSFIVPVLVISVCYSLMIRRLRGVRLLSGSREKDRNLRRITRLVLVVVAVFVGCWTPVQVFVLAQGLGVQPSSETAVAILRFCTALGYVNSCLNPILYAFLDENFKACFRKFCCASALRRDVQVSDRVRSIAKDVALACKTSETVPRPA
T1 sequence (P41143 whole entry): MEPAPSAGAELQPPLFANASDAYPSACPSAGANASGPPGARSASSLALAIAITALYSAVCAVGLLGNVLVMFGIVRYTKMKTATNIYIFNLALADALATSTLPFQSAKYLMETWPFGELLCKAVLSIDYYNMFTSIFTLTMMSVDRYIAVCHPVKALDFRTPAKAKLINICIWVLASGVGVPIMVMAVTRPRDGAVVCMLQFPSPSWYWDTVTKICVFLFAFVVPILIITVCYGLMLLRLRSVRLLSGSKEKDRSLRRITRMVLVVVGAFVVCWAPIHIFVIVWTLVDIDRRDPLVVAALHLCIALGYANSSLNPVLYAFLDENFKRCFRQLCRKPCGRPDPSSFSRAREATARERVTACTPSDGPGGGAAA

H-Dmt-Tic-Gly-NH-Bzl [UFP-505]
pKi [1]: 5.86
Physiological or behavioural toxicity [2]: did not observe any physiological or behavioural toxicity
Inhibition of forskolin-stimulated cAMP production [3]: significantly lower specificity than DPDPE
Inhibition of forskolin-stimulated cAMP production [4]: not observed
pKi [5]: 6.29
DOP receptor antagonism pKb ([6]; ref 37): 9.81
DOP receptor antagonism pKb ([6]; ref 60): 10.50

Cc1cc(O)cc(C)c1C[C@H](N)C(=O)N1CCCC[C@H]1C(=O)NCC(=O)NCc1ccccc1 [UTA1003] (H-[Dmt]-[Pip]-Gly-NHBn)
Emax [7]: 82.4%
EC50 ([7]; EC50, CHO-MOP, 1 µM forskolin): 6.89 nM
EC50 ([7]; pEC50, CHO-MOP): 6.92 nM
Rearing time and rearing numbers, open field ([8]; acute s.c., 30 min post administration): slightly reduced rearing time and rearing numbers than vehicle
Total rotational activities, open field ([8]; acute s.c., 120 min observation): remained unaffected
Moving distance, open field ([8]; acute s.c., UTA1003 24.6 mg/kg): unaffected
Moving time, open field ([8]; acute s.c., UTA1003 24.6 mg/kg, 30 min post administration): significantly reduced moving time compared to the vehicle group
Motor behaviour after repeated treatment, open field ([8]; s.c. twice daily over 8 days, 30 min post administration): only a mild but significant suppression of motor activity on the first day
Solubility compared to UFP-505 [9]: subjectively displayed better solubility
Emax [10]: 28.3%
EC50 ([10]; EC50, CHO-NOP, 5 µM forskolin): 1790 nM
EC50 ([10]; pEC50, CHO-NOP): 1780 nM
Emax [11]: 94.5%
EC50 ([11]; EC50): 30.9 nM
EC50 ([11]; pEC50): 30.9 nM
Itching ([2]; repeated dosing): absent
Physiological or behavioural toxicity [2]: did not observe any physiological or behavioural toxicity
Emax [3]: 28.2%
Inhibition of forskolin-stimulated cAMP production [3]: significantly lower specificity than DPDPE
EC50 ([3]; EC50, CHO-DOP, 1 µM forskolin): 26.6 nM
EC50 ([3]; pEC50, CHO-DOP): 26.3 nM
Inhibition of forskolin-stimulated cAMP production [4]: not observed
Oxidative damage in the rat hippocampus [12]: reduced oxidative damage in the rat hippocampus
Kb ([13]; CHO-DOP, read-out: DOP receptor antagonism pKb (converted)): 47.9 nM
Kd ([13]; read-out: Antagonist Effect (Kd)): 47.8 nM

C[C@@H](NC(=O)[C@@H](N)Cc1ccc(O)cc1)C(=O)NCC(=O)N(C)[C@@H](Cc1ccccc1)C(=O)NCCO [DAMGO, reference compound]
Emax ([7]; CHO-MOP, inhibition of forskolin-stimulated cAMP, read-out: Emax (%)): 88.8%

CN1CC[C@]23c4c5ccc(O)c4O[C@H]2[C@@H](O)C=C[C@H]3[C@H]1C5 [morphine]
Antinociception, morphine versus UTA1003/morphine at same day, hot plate [14]: significantly lower than those of the UTA1003/morphine co-treatment on day 2
